Test results from patent US20220399129A1, “SYSTEMS AND METHODS FOR TERRAFORMING” (Flagship Pioneering Innovations VI, LLC, priority 2021, published 2022).

Test system: primary human bronchial epithelial cells (HBECs)
Test: ALI differentiation of HBECs with IL-13, immunofluorescence/histology readout
Assay type: cell-based
Details: IL-13 treatment during ALI differentiation, day 14, 1 ng/mL
Experimental: FIG. 14A illustrates an experimental scheme of culturing the undifferentiated basal cells known as primary human bronchial epithelial cells (HBECs) at the air-liquid interface in the presence or absence of IL-13 and the perturbagens. […] Pseudostratified airway epithelium was formed by day 14 of ALI differentiation in the presence of 1 ng/mL of […]. Total mucus (AB/PAS), goblet cells (Muc5ac^+), and ciliated cells (acetyl α-tubulin^+) were visualized via immunofluorescence or histology. For histology analysis, the differentiated HBECs on day 14 of ALI were stained with AB/PAS, Muc5ac, and acetyl α-tubulin. […] Immunofluorescence allows for a top down view of the most apical layer of cells, while histology presents a cross-section of the pseudostratified epithelium and is amenable for image quantification.
Using scRNA-seq data, Compound B1 was predicted to inhibit goblet cells and promote club cells within the top 1.2% of compounds of the intervention library. […] Goblet and club cells were assessed by Muc5ac and Scgblal primers, respectively. […] Goblet and ciliated cells were assessed by Muc5ac and Foxj1 primers, respectively. […]
Pseudostratified airway epithelium was formed by day 14 of ALI differentiation. […] In addition, qPCR of ciliated (Foxj1) and goblet (Muc5ac) marker expression was used as a sensitive and quantitative readout of epithelial cell type distribution. […]

IL-13: inflammatory signaling cytokine (R&D) used to induce goblet cell hyperplasia
ciliated cells (acetyl α-tubulin+): reduces ciliated cells | goblet cells (Muc5ac+), total mucus (AB/PAS): induces goblet cell hyperplasia
